From US20130108610A1 (priority 2011, published 2013)

Legend:
[1] = biological target: T1, aconitase (Saccharomyces cerevisiae, UniProt P19414); test: Aconitase activity in lysates of treated Saccharomyces cerevisiae BY4741 cultures (Bioxytech Aconitase-340 kit); type: cell-based; conditions: for Aconitase Activity, % of Untreated Control: S. cerevisiae BY4741 in YPD, incubated overnight, cell lysate, negative activity reported as 0; for Aconitase inhibition (in words): culturing of cells in the presence of the material, effective = inhibition by 70% or more
T1 construct: endogenous in cells; host or cells: Saccharomyces cerevisiae strain BY4741
T1 sequence (P19414 17-778): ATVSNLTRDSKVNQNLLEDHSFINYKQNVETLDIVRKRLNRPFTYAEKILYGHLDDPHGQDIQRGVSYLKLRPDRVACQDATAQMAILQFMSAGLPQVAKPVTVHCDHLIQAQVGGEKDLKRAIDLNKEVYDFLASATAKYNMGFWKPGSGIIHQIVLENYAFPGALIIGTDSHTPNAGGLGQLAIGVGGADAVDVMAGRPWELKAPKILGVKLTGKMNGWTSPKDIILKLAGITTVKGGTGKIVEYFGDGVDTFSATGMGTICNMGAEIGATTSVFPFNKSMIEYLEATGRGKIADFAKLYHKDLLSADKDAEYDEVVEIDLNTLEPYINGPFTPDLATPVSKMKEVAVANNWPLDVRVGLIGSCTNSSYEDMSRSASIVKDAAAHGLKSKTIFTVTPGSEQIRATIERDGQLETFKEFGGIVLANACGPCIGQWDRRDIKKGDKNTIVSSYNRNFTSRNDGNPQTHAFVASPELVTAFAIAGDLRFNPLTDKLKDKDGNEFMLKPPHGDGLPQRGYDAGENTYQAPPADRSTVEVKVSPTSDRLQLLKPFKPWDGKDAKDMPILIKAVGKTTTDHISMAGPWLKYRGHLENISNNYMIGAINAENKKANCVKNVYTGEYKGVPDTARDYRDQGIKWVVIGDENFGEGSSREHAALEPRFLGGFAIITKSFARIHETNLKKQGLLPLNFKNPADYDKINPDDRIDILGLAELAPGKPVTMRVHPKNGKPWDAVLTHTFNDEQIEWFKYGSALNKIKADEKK
Experimental: Cultures of Saccharomyces cerevisiae strain BY4741 are grown in YPD (20 grams glucose, 20 grams peptone, 10 grams yeast extract per liter) broth overnight at 30°. The cultures are diluted with YPD to a total volume of 100 mls with an optical density (600 nm) of 0.1. The cultures are incubated with shaking until reaching an optical density of 0.2, whereupon the test material is added. The cultures are incubated overnight, and the cells are pelleted by centrifugation. The cell pellet is washed with 100 mM NaCl, 20 mM Tris pH 7.4 and resuspended in 5 ml of 100 mM NaCl, 20 mM Tris pH 7.4. Glass beads (0.5 mm) is added. The sample is alternately vortexed for one minute and incubated on ice for one minute, with a total of ten treatments. After centrifugation, the supernatant is collected. In a 96-well plate (UV-transparent Corning 3679 plate), 30 μl of cell lysate is mixed with 20 μl 100 mM NaCl, 20 mM Tris pH 7.4 and assayed using a Bioxytech Aconitase-340 kit (OxisResearch) according to instructions.
For the aconitase assay, samples are incubated for six minutes at 37°. The reaction rate is calculated based on the increase in optical density (340 nm) in the five-minute interval beginning one minute after the reaction started. The aconitase activity in lysates of treated samples is divided by the aconitase activity in lysates of untreated samples. If replicates were performed on samples, the reported data are a mean of the aconitase activity measurements of individual lysates of treated cells divided by the mean of the aconitase activity measurements of individual lysates of untreated cells. If the aconitase activity appears to be negative in lysates of treated cells, the value “0” is reported for aconitase activity (Table 1).

[2] = test system: Saccharomyces; conditions: minimal medium; by inhibition of glutamate and lysine synthesis

Row | SMILES | Aconitase Activity, % of Untreated Control ([1]; 50 ppm test material) [%] | further results
1 | c1cnc2c(c1)ccc1cccnc12 [1,10-Phenanthroline] | 2 | –
2 | Oc1cccc2cccnc12 [8-Hydroxyquinoline] | 15 | –
3 | On1ccccc1=S.On1ccccc1=S.[Cu] [Copper Pyrithione (CuPT), Copper Pyrithione] | – | Aconitase Activity, % of Untreated Control ([1]; 5 ppm test material): 0%
4 | O=C(O)CN(CCN(CC(=O)O)CC(=O)O)CC(=O)O [EDTA] | 36 | Aconitase inhibition (in words) [1]: not effective
5 | CCCCCCCCOc1cccc(=O)n1O.NCCO [N-Hydroxy-6-octyloxypyridine-2(1H)one, ethanolamine salt] | 0 | –
6 | Cc1cc(CC(C)CC(C)(C)C)n(O)c(=O)c1.NCCO (centres unmarked) [Piroctone Diamine (Octopirox), Piroctone Diamine] | 0 | –
7 | O=S(=O)([O-])[O-].[Zn+2] [Zinc Sulfate] | 110 | –
8 | [O-]n1ccccc1=S.[O-]n1ccccc1=S.[Zn+2] [Zinc pyrithione (ZPT), zinc salt of 1-hydroxy-2-pyridinethione] | – | Aconitase Activity, % of Untreated Control ([1]; 5 ppm test material): 0%; Aconitase inhibition (in words) [1]: aconitase inhibition; Growth inhibition (in words) [2]: inhibits growth
